Results on ten molecules are retold here after patent US20200281202A1 (priority 2017, published 2020).

Experiment [1] concerns Phytophthora infestans. Kind of experiment: microbe, parasite or virus in culture. The class given is cell-based. The following applies: Phytophthora infestans, 168 h, read-out: control (radial growth) compared to the untreated check.
The subject of experiment [2] is Phytophthora infestans. Kind of experiment: whole plant or invertebrate. Format: in vivo. The settings on record: Phytophthora infestans, in Solanum lycopersicum, read-out: control (disease severity) compared to the untreated check.
Experiment [3] concerns Plasmopara viticola. Kind of experiment: Plasmopara viticola test in grape, preventive. The class given is in vivo. The following applies: Plasmopara viticola, 50 ppm spray, grape seedlings inoculated one day after treatment, read-out: control (disease severity) compared to the untreated check. The method, then: Example B: Plasmopara viticola Test in Grape
Compounds were dissolved in 2% DMSO/Acetone & then mixed with water to calibrated spray volume of 50 ml. This 50 ml spray solution was poured into the spray bottles for further applications.
To test the preventive activity of compounds, five week old healthy grape seedlings raised in the greenhouse were sprayed with active compound preparation at the stated application rates inside the spray cabinets using hallow-cone nozzles. One day after treatment, the plants were inoculated with inoculum suspension (Cold sterile water) containing 6×10^6 Plasmopara viticola inoculum. The inoculated plants were then kept in greenhouse chamber at 18-21° C. temperature and 95-100% relative humidity for disease expression. Compounds
A visual assessment of compound's performance was carried by rating the disease severity (0-100% scale) on treated plants on 3, 7, 10 and 15 days after application. Efficacy (% control) of the compounds was calculated by comparing the disease rating in the treatment with untreated control. The sprayed plants were also assessed for compound's phytotoxic effects by recording symptoms like necrosis, chlorosis and stunting.

In the case of `Cc1ccc(C(F)(F)F)c(OCC(=O)N2CCC(c3nc(C4=NOC(c5c(Cl)cccc5OS(C)(=O)=O)C4)cs3)CC2)n1` (stereo not drawn) [Compound 42, 3-chloro-2-(3-(2-(1-(2-((6-methyl-3-(trifluoromethyl)pyridin-2-yl)oxy)acetyl)piperidin-4-yl)thiazol-4-yl)-4,5-dihydroisoxazol-5-yl)phenyl methanesulfonate], the inhibition of growth at 30 ppm in experiment [1] turned out to be 70%. The pest or weed control at 50 ppm in experiment [2] and in experiment [3] was 90% throughout.

With `CS(=O)(=O)Oc1cccc(Cl)c1C1CC(c2csc(C3CCN(C(=O)COc4ncc(C(F)(F)F)cc4Br)CC3)n2)=NO1` (stereo not drawn) [Compound 52], the inhibition of growth at 30 ppm in experiment [1] stood at 70%. In addition, the pest or weed control at 50 ppm in experiment [2] and in experiment [3] was 90% in each case.

For `CS(=O)(=O)Oc1cccc(Cl)c1C1CC(c2csc(C3CCN(C(=O)CSc4ncccc4C(F)(F)F)CC3)n2)=NO1` (stereo not drawn) [Compound 61, 3-chloro-2-(3-(2-(1-(2-((3-(trifluoromethyl)pyridin-2-yl)thio)acetyl)piperidin-4-yl)thiazol-4-yl)-4,5-dihydroisoxazol-5-yl)phenyl methanesulfonate], in experiment [1], the inhibition of growth at 30 ppm was found to be 70%. The pest or weed control at 50 ppm in experiment [2] and in experiment [3] was 90% in each case.

With `O=C(CSc1ncccc1C(F)(F)F)N1CCC(c2nc(C3=NOC(c4c(F)cccc4F)C3)cs2)CC1` (stereo not drawn) [Compound 62, 1-(4-(4-(5-(2,6-difluorophenyl)-4,5-dihydroisoxazol-3-yl)thiazol-2-yl)piperidin-1-yl)-2-((3-(trifluoromethyl)pyridin-2-yl)thio)ethan-1-one], the inhibition of growth at 30 ppm in experiment [1] is 70%. Also, the pest or weed control at 50 ppm in experiment [2] and in experiment [3] was 90% throughout.

Regarding `O=C(COc1ncccc1C(F)(F)F)N1CCC(c2nc(C3=NOC(c4ccccc4F)C3)cs2)CC1` (stereo not drawn) [Compound 66, 1-(4-(4-(5-(2-fluorophenyl)-4,5-dihydroisoxazol-3-yl)thiazol-2-yl)piperidin-1-yl)-2-((3-(trifluoromethyl)pyridin-2-yl)oxy)ethan-1-one], the inhibition of growth at 30 ppm in experiment [1] was found to be 70%. The pest or weed control at 50 ppm in experiment [2] and in experiment [3] was 90% throughout.

As for `Cc1cccnc1OCC(=O)N1CCC(c2nc(C3=NOC(c4c(Cl)cccc4Cl)C3)cs2)CC1` (stereo not drawn) [Compound 76, 1-(4-(4-(5-(2,6-dichlorophenyl)-4,5-dihydroisoxazol-3-yl)thiazol-2-yl)piperidin-1-yl)-2-((3-methylpyridin-2-yl)oxy)ethan-1-one], the inhibition of growth at 30 ppm in experiment [1] was 70%. The pest or weed control at 50 ppm in experiment [2] and in experiment [3] was 90% each time.

With `Cc1cccnc1OCC(=O)N1CCC(c2nc(C3=NOC(c4c(F)cccc4F)C3)cs2)CC1` (stereo not drawn) [Compound 77, 1-(4-(4-(5-(2,6-difluorophenyl)-4,5-dihydroisoxazol-3-yl)thiazol-2-yl)piperidin-1-yl)-2-((3-methylpyridin-2-yl)oxy)ethan-1-one], the inhibition of growth at 30 ppm in experiment [1] stood at 70%. In addition, the pest or weed control at 50 ppm in experiment [2] and in experiment [3] was 90% in each case.

As for `Cc1cccnc1OCC(=O)N1CCC(c2nc(C3=NOC(c4c(Cl)cc(Cl)cc4Cl)C3)cs2)CC1` (stereo not drawn) [Compound 79], the inhibition of growth at 30 ppm in experiment [1] came out at 70%. The pest or weed control at 50 ppm in experiment [2] and in experiment [3] was 90% each time.

In the case of `O=C(COc1ncccc1C(F)F)N1CCC(c2nc(C3=NOC(c4c(F)cccc4F)C3)cs2)CC1` (stereo not drawn) [Compound 86, 2-((3-(difluoromethyl)pyridin-2-yl)oxy)-1-(4-(4-(5-(2,6-difluorophenyl)-4,5-dihydroisoxazol-3-yl)thiazol-2-yl)piperidin-1-yl)ethan-1-one], the inhibition of growth at 30 ppm in experiment [1] was 70%. Further, the pest or weed control at 50 ppm in experiment [2] and in experiment [3] was 90% in each case.

Regarding `O=C(COc1ncccc1C(F)F)N1CCC(c2nc(C3=NOC(c4c(Cl)cc(Cl)cc4Cl)C3)cs2)CC1` (stereo not drawn) [Compound 87], the inhibition of growth at 30 ppm in experiment [1] is 70%. Further, the pest or weed control at 50 ppm in experiment [2] and in experiment [3] was 90% each time.
